From US9493466B2, “Treatment of cancer with TOR kinase inhibitors” (Signal Pharmaceuticals, LLC, priority 2011, dated 2016) come the findings set out here.

Like-named read-outs stand apart in the source and are kept apart here.

One experiment has as its system OCI-LY-3. Briefly: Growth inhibition assay for NHL lines. The format is cell-based. The note with it: OCI-LY-3, NHL DLBCL, 96 hours, n ≧ 3. The procedure:
(§1) Growth Inhibition Assay for HCC and NHL Lines. The seeding density for each cell line was optimized to ensure assay linearity in 384-well plates.
(§2) Compound 1 was dissolved in dimethyl sulfoxide (DMSO) to prepare a 10 mM stock solution. A serial titration was performed to produce a working concentration range of […] to 10 mM. Aliquots to produce final concentrations of 1.5 nM to 10 μM were spotted via an acoustic dispenser (EDC ATS-100) into an empty 384-well plate. Compound 1 was spotted in a 10-point serial dilution fashion (3-fold dilution) in duplicate within the plate. The DMSO concentration was kept constant for a final assay concentration of 0.1% DMSO. Plates were replicated for use with different cell lines and testing periods. After compound plate replication, all plates were sealed (Agilent ThermoLoc) and stored at −20° C. for up to 1 month. […] When ready for testing, plates were removed from the freezer, thawed, and unsealed just prior to the addition of the test cells. Prior to testing, cells were grown and expanded in culture flasks to provide sufficient amounts of starting material. Cells were then diluted to the appropriate densities and added directly to the compound-spotted 384-well plates. Cells were allowed to grow for 96 hours at 37° C./5% CO2. At the time when compound was added (t0), initial cell number was assessed via a viability assay (Cell Titer-Glo) by quantifying the level of luminescence generated by ATP present in viable cells. After 96 hours, cell viability of compound-treated cells was assessed via Cell Titer-Glo and luminescence measurement. Cell lines were assayed for growth inhibition by Compound 1 in at least 3 independent tests. A control cell line (the lung tumor cell line, A549) was included in each of the assays. The compound response against this control cell line was monitored closely to enable comparison of the data generated through the assay period. All data were normalized and presented as a percentage of the DMSO-treated cells. Results were then expressed as a GI50 value. The GI50 value corrects for the cell count at time zero. In addition, the IC50 value of Compound 1 for each cell line was calculated.

A further experiment concerns SU-DHL-8. Briefly: Growth inhibition assay for NHL lines. The note with it: SU-DHL-8, NHL DLBCL, 96 hours, n ≧ 3. The format is cell-based. As for the experimental part:
as §1, §2

The subject of another experiment is WSU-FSCCL. Briefly: Growth inhibition assay for NHL lines. The note with it: NHL FL, 96 hours, n ≧ 3. The format is cell-based. As for the experimental part:
as §1, §2

The test system of experiment [1] is NSCLC primary tumor grafts. Description: Low passage tumorgraft models of NSCLC. The format is in vivo, immunocompromised mice. The note with it: 1, 5 and 10 mg/kg once daily for 28 days. As for the experimental part: In Vivo Evaluation of Compound 1 in Low Passage Tumorgraft Models of Non-Small Cell Lung Cancer (NSCLC). The objective of the study was to evaluate the single agent efficacy of Compound 1 in non-small cell lung cancer (NCSLC) models. The antitumor activity of Compound 1 was evaluated in low passage non-small cell lung cancer (NSCLC) tumorgraft models. The tumorgrafts were developed by directly implanting the human tumor fragments into immunocompromised mice and then subsequently passaged in vivo. The tumors from these primary tumorgrafts have preserved biological and morphological characteristics of the original human tumors. The antitumor activity of Compound 1 was evaluated at three dose levels (1, 5 and 10 mg/kg) with once daily dosing for 28 days. During the course of the study antitumor activity was evaluated by measuring the tumors.

The test system of the next experiment is U87MG tumors. Briefly: CD31 immunohistochemistry in U87MG tumors. Type of experiment: in vivo, mice. The note with it: 5 mg/kg BID oral for 4 days; p<0.001. The procedure:
Mechanism of action studies. To determine the mechanism of action of Compound 1, mice bearing U87MG tumors of approximately 500 mm^3 were dosed orally with vehicle or Compound 1 at 5 mg/kg BID for 4 days. The positive control, rapamycin, was dosed at 4 mg/kg Q3D for 4 days. Two hours after the 7th dose of Compound 1 on day 4, animals were euthanized and tumors were dissected out and snap frozen in liquid nitrogen. In the rapamycin-treated group tumors were collected at 2 hour after the 2nd dose on day 4. The tumors were processed for immunohistochemistry (IHC) or TUNEL.
Immunohistochemistry. Five to ten micron (5-10 μm) thick cryostat sections were used for IHC. The expression of the cell proliferation marker Ki67 was evaluated by IHC using anti-Ki67 antibody. […] The sections were visualized with a Nikon E800 microscope equipped with fluorescence detection equipment and a digital camera attached to a computer.
Quantitation of Immunohistochemistry. The tissues sections processed for apoptosis or immunostained for proliferating cells (Ki67) or blood vessels were quantitated using Metamorph software. Using 20× objective, 5 different fields from each section, 2-4 sections from each tumor, and 3-4 tumors from each treatment group or control were used for quantitation. The area of interest was expressed as the percent threshold area of the total area. […]

The next experiment concerns Anbl 6. Description: Cell proliferation and viability assay for MM lines. Type of experiment: cell-based. The note with it: Homo sapiens, 120 h, Anbl 6, 5 days, 7AAD FACS. As for the experimental part: Cell Proliferation and Viability Assay for MM Lines. Prior to use, cells were washed and maintained in medium for 5 days. Cells were seeded out at a density of 0.3×10^6 cells/mL in a 12-well plate and treated with Compound 1 or Compound 2 for 5 days. 7AAD detection fluorescence-activated cell sorting (FACS) flow cytometry was used in the analysis.

One may read the GI50 as the concentration giving 50% growth inhibition. Lower therefore signals greater sensitivity of the cells. As for `CO[C@H]1CC[C@H](N2C(=O)CNc3ncc(-c4ccc(C(C)(C)O)nc4)nc32)CC1` [Compound 1, 7-(6-(2-hydroxypropan-2-yl)pyridin-3-yl)-1-((1r,4r)-4-methoxycyclohexyl)-3,4-dihydropyrazino-[2,3-b]pyrazin-2(1H)-one], the GI50 came out at 210 ± 60 nM in the experiment with OCI-LY-3, 80 ± 40 nM in the experiment with SU-DHL-8 and 160 ± 40 nM in the experiment on WSU-FSCCL. Further, the IC50 came out at 290 ± 70 nM in the experiment on OCI-LY-3, 100 ± 40 nM in the experiment on SU-DHL-8 and 190 ± 40 nM in the experiment on WSU-FSCCL. Moreover, in experiment [1], the “growth of tumor grafts” value is reported as “significantly inhibited”. The “reduction of CD31-positive blood vessels compared with vehicle” value with U87MG tumors came to 50%.

With `CCN1C(=O)CNc2ncc(-c3ccc(-c4nc[nH]n4)nc3C)nc21` [Compound 2, 1-ethyl-7-(2-methyl-6-(1H-1,2,4-triazol-3-yl)pyridin-3-yl)-3,4-dihydropyrazino[2,3-b]pyrazin-2(1H)-one], the IC50 in the experiment on Anbl 6 (read-out: IC50, Proliferation) is 370 nM; in the experiment on Anbl 6 (read-out: IC50, Viability), 780 nM.
